Tests used:
Ephrin type-A receptor 3 = biological target: T1, Ephrin type-A receptor 3 (Mus musculus, UniProt P29319); assay: Displacement of biotinylated Fc-tagged ephrin-A1 from recombinant N/C-terminal 6-his tagged mouse EphA3 (Glu21 to His541 residues) preincubated for 1 hr followed by ephrin-A1-Fc addition and measured after 4 to 5 hrs by ELISA assay
T1 sequence (P29319 whole entry): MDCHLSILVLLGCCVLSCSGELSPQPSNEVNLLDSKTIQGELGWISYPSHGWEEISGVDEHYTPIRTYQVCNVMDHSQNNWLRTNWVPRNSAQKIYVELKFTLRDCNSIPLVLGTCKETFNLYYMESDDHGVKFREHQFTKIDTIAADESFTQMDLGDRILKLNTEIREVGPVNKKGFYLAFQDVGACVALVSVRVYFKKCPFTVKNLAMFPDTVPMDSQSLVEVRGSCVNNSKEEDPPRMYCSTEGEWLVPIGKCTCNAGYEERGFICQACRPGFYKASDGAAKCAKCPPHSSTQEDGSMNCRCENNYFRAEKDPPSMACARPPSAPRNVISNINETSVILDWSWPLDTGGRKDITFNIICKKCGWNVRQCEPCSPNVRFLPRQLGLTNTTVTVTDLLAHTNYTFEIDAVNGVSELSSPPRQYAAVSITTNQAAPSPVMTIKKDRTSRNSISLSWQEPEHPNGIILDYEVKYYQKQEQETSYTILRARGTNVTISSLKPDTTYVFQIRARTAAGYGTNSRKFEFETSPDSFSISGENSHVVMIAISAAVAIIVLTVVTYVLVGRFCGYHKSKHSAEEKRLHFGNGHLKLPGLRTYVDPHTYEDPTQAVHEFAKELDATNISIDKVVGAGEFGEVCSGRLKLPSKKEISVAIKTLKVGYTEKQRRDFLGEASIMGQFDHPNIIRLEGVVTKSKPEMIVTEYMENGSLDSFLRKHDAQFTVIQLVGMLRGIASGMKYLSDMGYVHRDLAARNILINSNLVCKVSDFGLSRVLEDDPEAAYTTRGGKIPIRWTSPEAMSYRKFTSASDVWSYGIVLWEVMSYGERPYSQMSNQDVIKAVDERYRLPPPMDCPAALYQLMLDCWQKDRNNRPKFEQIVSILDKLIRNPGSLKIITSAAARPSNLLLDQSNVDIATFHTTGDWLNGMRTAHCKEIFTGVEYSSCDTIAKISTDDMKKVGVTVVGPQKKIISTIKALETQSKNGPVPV

Ephrin type-B receptor 3 = biological target: T2, Ephrin type-B receptor 3 (Mus musculus, UniProt P54754); assay: Displacement of biotinylated Fc-tagged ephrin-B1 from recombinant mouse EphB3 (Leu 30 to Thru537 residues) preincubated for 1 hr followed by ephrin-B1-Fc addition and measured after 4 to 5 hrs by ELISA assay
T2 sequence (P54754 whole entry): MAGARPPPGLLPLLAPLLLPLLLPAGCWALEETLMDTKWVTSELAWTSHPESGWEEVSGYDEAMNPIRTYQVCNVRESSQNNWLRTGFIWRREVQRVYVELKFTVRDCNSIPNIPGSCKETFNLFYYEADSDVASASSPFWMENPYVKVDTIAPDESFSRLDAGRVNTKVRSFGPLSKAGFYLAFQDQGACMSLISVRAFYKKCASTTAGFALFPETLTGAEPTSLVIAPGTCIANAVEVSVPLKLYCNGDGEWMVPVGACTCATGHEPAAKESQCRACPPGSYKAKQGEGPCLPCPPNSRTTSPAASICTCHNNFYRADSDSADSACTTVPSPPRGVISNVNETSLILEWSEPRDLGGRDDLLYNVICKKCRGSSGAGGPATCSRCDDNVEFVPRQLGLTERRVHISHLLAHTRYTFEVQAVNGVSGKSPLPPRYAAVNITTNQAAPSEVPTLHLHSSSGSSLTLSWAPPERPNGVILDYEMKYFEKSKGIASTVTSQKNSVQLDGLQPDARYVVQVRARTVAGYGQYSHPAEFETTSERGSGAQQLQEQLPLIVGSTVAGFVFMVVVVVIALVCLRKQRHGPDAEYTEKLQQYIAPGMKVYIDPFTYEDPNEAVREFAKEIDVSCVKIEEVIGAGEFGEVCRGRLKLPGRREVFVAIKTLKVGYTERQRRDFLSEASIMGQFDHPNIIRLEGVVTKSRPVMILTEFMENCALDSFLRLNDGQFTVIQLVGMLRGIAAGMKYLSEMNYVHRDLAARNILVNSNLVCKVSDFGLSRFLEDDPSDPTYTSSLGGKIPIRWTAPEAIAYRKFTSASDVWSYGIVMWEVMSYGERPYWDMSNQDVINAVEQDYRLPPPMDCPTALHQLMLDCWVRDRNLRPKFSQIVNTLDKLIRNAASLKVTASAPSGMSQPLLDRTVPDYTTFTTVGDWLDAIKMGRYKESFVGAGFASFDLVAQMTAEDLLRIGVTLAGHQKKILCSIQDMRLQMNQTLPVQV

Ephrin type-A receptor 7 = Ephrin type-A receptor 7 (Mus musculus, UniProt Q61772); assay: Displacement of biotinylated Fc-tagged ephrin-A1 from recombinant N/C-terminal 6-his tagged mouse EphA7 (Ala30 to Pro549 residues) preincubated for 1 hr followed by ephrin-A1-Fc addition and measured after 4 to 5 hrs by ELISA assay
Ephrin type-A receptor 7, sequence (Q61772 whole entry): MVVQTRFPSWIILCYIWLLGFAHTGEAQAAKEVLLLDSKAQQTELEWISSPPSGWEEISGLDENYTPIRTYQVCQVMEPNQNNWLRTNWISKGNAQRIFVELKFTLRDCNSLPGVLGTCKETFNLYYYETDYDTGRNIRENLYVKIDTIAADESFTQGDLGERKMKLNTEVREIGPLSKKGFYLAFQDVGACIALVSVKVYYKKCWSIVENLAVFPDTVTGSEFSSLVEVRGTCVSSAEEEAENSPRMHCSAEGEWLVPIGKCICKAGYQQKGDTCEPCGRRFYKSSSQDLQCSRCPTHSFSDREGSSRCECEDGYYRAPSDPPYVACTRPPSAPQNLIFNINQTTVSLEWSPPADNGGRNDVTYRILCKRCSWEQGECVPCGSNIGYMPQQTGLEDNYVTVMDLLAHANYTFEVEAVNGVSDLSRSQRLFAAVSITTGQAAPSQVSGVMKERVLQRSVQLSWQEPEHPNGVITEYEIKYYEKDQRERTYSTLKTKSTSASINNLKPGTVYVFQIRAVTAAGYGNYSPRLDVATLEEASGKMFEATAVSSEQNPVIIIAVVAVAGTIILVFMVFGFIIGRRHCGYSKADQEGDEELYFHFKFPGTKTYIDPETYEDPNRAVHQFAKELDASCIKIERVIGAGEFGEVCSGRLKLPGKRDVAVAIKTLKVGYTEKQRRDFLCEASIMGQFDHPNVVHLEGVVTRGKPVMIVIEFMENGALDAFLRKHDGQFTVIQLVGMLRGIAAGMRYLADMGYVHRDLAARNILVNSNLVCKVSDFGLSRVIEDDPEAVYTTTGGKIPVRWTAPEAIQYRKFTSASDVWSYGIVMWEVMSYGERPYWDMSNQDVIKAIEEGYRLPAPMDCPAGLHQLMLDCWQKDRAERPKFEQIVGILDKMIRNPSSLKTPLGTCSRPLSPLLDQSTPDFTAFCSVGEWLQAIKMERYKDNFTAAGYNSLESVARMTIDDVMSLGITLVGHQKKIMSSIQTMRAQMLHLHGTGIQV

SMILES | IC50 (Ephrin type-A receptor 3) [µM] | IC50 (Ephrin type-B receptor 3) [µM] | IC50 (Ephrin type-A receptor 7) [µM]
C[C@H](CCC(=O)N[C@H](CC(=O)O)Cc1cn(S(=O)(=O)c2ccc(C(F)(F)F)cc2)c2ccccc12)[C@H]1CC[C@H]2[C@@H]3CC=C4C[C@@H](O)CC[C@]4(C)[C@H]3CC[C@]12C | 7.6 | > 30 | 15
C[C@H](CCC(=O)N[C@H](CC(=O)O)Cc1c[nH]c2ccccc12)[C@H]1CC[C@H]2[C@@H]3CC=C4C[C@@H](O)CC[C@]4(C)[C@H]3CC[C@]12C | 4.1 | 9.8 | 4.5
C[C@H](CCC(=O)N[C@H](CC(=O)O)Cc1cn(S(=O)(=O)c2ccccc2)c2ccccc12)[C@H]1CC[C@H]2[C@@H]3CC=C4C[C@@H](O)CC[C@]4(C)[C@H]3CC[C@]12C | 11 | > 30 | 22
